Experimental data from PubChem BioAssay AID1259407 (Chemical Carcinogenesis Research Information System (CCRIS), 2018).
Calls of active or inactive are those of the source. The rule behind the calls is not given here.

System: CCRIS mutagenicity, Ames/micronucleus/aberration tests
Experiment: CCRIS mutagenicity studies

COc1ccc(N)cc1
mutagenic call (End Point: IN VITRO CHROMOSOMAL ABERRATIONS, Test System: CHINESE HAMSTER OVARY CELLS, Metabolic Activation: NONE): active; positive
mutagenic call (End Point: IN VITRO CHROMOSOMAL ABERRATIONS, Test System: CHINESE HAMSTER OVARY CELLS, Metabolic Activation: RAT, LIVER, S-9, AROCLOR 1254): active; positive
mutagenic call (End Point: MORPHOLOGICAL TRANSFORMATION, Test System: SYRIAN HAMSTER EMBRYO CELLS (SHE), Metabolic Activation: NONE): active; positive
mutagenic call (Test System: AMES SALMONELLA TYPHIMURIUM, Strain/Indicator: TA98, Metabolic Activation: HAMSTER, LIVER, S-9, AROCLOR 1254 (30%), Method: PREINCUBATION): inactive; negative
mutagenic call (Test System: AMES SALMONELLA TYPHIMURIUM, Strain/Indicator: TA98, Metabolic Activation: HAMSTER, LIVER, S-9, AROCLOR 1254, Method: STANDARD PLATE): inactive; negative
mutagenic call (Test System: AMES SALMONELLA TYPHIMURIUM, Strain/Indicator: TA98, Metabolic Activation: HAMSTER, LIVER, S-9, Method: STANDARD PLATE): inactive; negative
mutagenic call (Test System: AMES SALMONELLA TYPHIMURIUM, Strain/Indicator: TA98, Metabolic Activation: MOUSE, LIVER, S-9, AROCLOR 1254, Method: STANDARD PLATE): inactive; negative
mutagenic call (Test System: AMES SALMONELLA TYPHIMURIUM, Strain/Indicator: TA98, Metabolic Activation: MOUSE, LIVER, S-9, Method: STANDARD PLATE): inactive; negative
mutagenic call (Test System: AMES SALMONELLA TYPHIMURIUM, Strain/Indicator: TA98, Metabolic Activation: NONE, Method: PREINCUBATION): inactive; negative
mutagenic call (Test System: AMES SALMONELLA TYPHIMURIUM, Strain/Indicator: TA98, Metabolic Activation: NONE, Method: STANDARD PLATE): inactive; negative
mutagenic call (Test System: AMES SALMONELLA TYPHIMURIUM, Strain/Indicator: TA98, Metabolic Activation: RAT LIVER S-9, PHENOBARBITAL AND BETA-NAPHTHOFLAVONE, Method: PREINCUBATION): inactive; negative
mutagenic call (Test System: AMES SALMONELLA TYPHIMURIUM, Strain/Indicator: TA98, Metabolic Activation: RAT, LIVER, S-9, AROCLOR 1254 (30%), Method: PREINCUBATION): inactive; negative
mutagenic call (Test System: AMES SALMONELLA TYPHIMURIUM, Strain/Indicator: TA98, Metabolic Activation: RAT, LIVER, S-9, AROCLOR 1254, Method: STANDARD PLATE): inactive; negative
mutagenic call (Test System: AMES SALMONELLA TYPHIMURIUM, Strain/Indicator: TA98, Metabolic Activation: RAT, LIVER, S-9, Method: STANDARD PLATE): inactive; negative
mutagenic call (Test System: AMES SALMONELLA TYPHIMURIUM, Strain/Indicator: TA100, Metabolic Activation: HAMSTER, LIVER, S-9, AROCLOR 1254 (30%), Method: PREINCUBATION): active; positive
mutagenic call (Test System: AMES SALMONELLA TYPHIMURIUM, Strain/Indicator: TA100, Metabolic Activation: NONE, Method: PREINCUBATION): inactive; negative
mutagenic call (Test System: AMES SALMONELLA TYPHIMURIUM, Strain/Indicator: TA100, Metabolic Activation: NONE, Method: STANDARD PLATE): inactive; negative
mutagenic call (Test System: AMES SALMONELLA TYPHIMURIUM, Strain/Indicator: TA100, Metabolic Activation: RAT LIVER S-9, PHENOBARBITAL AND BETA-NAPHTHOFLAVONE, Method: PREINCUBATION): inactive; negative
mutagenic call (Test System: AMES SALMONELLA TYPHIMURIUM, Strain/Indicator: TA100, Metabolic Activation: RAT, LIVER, S-9, AROCLOR 1254 (30%), Method: PREINCUBATION): inactive; negative
mutagenic call (Test System: AMES SALMONELLA TYPHIMURIUM, Strain/Indicator: TA102, Metabolic Activation: NONE, Method: PREINCUBATION): inactive; negative
mutagenic call (Test System: AMES SALMONELLA TYPHIMURIUM, Strain/Indicator: TA102, Metabolic Activation: NONE, Method: STANDARD PLATE): inactive; negative
mutagenic call (Test System: AMES SALMONELLA TYPHIMURIUM, Strain/Indicator: TA102, Metabolic Activation: RAT LIVER S-9, PHENOBARBITAL AND BETA-NAPHTHOFLAVONE, Method: PREINCUBATION): inactive; negative
mutagenic call (Test System: AMES SALMONELLA TYPHIMURIUM, Strain/Indicator: TA104, Metabolic Activation: NONE, Method: PREINCUBATION): inactive; negative
mutagenic call (Test System: AMES SALMONELLA TYPHIMURIUM, Strain/Indicator: TA104, Metabolic Activation: RAT LIVER S-9, PHENOBARBITAL AND BETA-NAPHTHOFLAVONE, Method: PREINCUBATION): inactive; negative
mutagenic call (Test System: AMES SALMONELLA TYPHIMURIUM, Strain/Indicator: TA1535, Metabolic Activation: HAMSTER, LIVER, S-9, AROCLOR 1254, Method: STANDARD PLATE): inactive; negative
mutagenic call (Test System: AMES SALMONELLA TYPHIMURIUM, Strain/Indicator: TA1535, Metabolic Activation: HAMSTER, LIVER, S-9, Method: STANDARD PLATE): inactive; negative
mutagenic call (Test System: AMES SALMONELLA TYPHIMURIUM, Strain/Indicator: TA1535, Metabolic Activation: MOUSE, LIVER, S-9, AROCLOR 1254, Method: STANDARD PLATE): inactive; negative
mutagenic call (Test System: AMES SALMONELLA TYPHIMURIUM, Strain/Indicator: TA1535, Metabolic Activation: MOUSE, LIVER, S-9, Method: STANDARD PLATE): inactive; negative
mutagenic call (Test System: AMES SALMONELLA TYPHIMURIUM, Strain/Indicator: TA1535, Metabolic Activation: NONE, Method: PREINCUBATION): inactive; negative
mutagenic call (Test System: AMES SALMONELLA TYPHIMURIUM, Strain/Indicator: TA1535, Metabolic Activation: NONE, Method: STANDARD PLATE): inactive; negative
mutagenic call (Test System: AMES SALMONELLA TYPHIMURIUM, Strain/Indicator: TA1535, Metabolic Activation: RAT LIVER S-9, PHENOBARBITAL AND BETA-NAPHTHOFLAVONE, Method: PREINCUBATION): inactive; negative
mutagenic call (Test System: AMES SALMONELLA TYPHIMURIUM, Strain/Indicator: TA1535, Metabolic Activation: RAT, LIVER, S-9, AROCLOR 1254, Method: STANDARD PLATE): inactive; negative
